Measurements from US5072002A, “Synthesis of cholesterol-lowering agents” (The Governors of the University of Alberta, priority 1989, dated 1991).

Columns and labels:
[1] = administered to human beings; cited from earlier work
[2] = target: T1, Rat Liver 3-hydroxy-3-methylglutarylcoenzyme A Reductase (Rattus norvegicus, UniProt P51639); experiment: Assay of HMGCoA reductase (rat liver microsomes), in vitro; assay type: biochemical; conditions: 20 min, 37° C., DMSO control 652, none 1254
T1 construct: rat liver microsome (75 μg protein); from tissue; host or cells: rat liver microsomes
T1 sequence (P51639 1-887): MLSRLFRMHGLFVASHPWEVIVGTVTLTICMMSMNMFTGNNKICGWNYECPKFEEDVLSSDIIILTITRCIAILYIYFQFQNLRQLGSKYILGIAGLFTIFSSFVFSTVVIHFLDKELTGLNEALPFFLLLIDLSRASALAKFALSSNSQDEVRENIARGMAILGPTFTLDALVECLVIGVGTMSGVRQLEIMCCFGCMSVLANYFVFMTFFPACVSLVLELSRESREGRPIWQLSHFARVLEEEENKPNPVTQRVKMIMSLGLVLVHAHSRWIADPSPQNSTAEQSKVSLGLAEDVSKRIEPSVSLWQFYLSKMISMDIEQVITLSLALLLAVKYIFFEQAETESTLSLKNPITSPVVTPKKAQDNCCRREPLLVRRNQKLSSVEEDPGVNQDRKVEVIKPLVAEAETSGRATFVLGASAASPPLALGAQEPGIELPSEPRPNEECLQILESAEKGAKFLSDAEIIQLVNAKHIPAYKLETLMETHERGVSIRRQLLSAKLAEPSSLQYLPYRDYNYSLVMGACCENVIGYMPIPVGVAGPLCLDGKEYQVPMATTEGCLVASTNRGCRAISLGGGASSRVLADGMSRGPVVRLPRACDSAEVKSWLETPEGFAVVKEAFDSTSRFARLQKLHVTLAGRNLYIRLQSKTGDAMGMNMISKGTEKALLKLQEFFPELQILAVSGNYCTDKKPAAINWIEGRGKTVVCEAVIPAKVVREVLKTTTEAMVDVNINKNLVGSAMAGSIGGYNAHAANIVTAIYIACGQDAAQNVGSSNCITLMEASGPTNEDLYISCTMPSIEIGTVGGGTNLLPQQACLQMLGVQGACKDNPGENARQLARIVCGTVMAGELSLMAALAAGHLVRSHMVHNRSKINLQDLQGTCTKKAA
Description: Ethylcompactin and mevinolin were dissolved in DMSO. Aliquots (10 μl) of each were incubated with 50 μl of 50 mM Pot. phosphate pH 7.4, 70 mM KCl, 30 mM EDTA, 10 mM DTT for 30 min at 37° C. to delactonize the compounds. Control incubations were done with 10 μL DMSO.
Assay of HMGCoA reductase was carried out as described by George and Ramasarma, [George R., Ramasarma, T., Biochem. J. (1977) 162:493-499]. At the end of 30 min, incubation for […], rat liver microsome (75 μg protein) were added to each tube along with glucose-6-phosphate (577 μM) glucose-6-phosphate dehydrogenase (0.05 unit/assay) and MADPH ([…]) and incubated for an additional 10 min at 37° C.
HMGCoA reductase reaction was initiated by the additon of 3-^14 C-HMGCoA ([…], final) and carried out for 20 min at 37° C. in a total volume of 100 μl. The reaction was terminated by the addition of 5N HCl (25 μl) containing known amounts of ^3 -H-Mevalonolactone as internal standard and non-radioactive mevalonolactone (0.6 mg/assay) as carrier. Mevalonic acid formed in the assay was allowed to lactonize by incubating the mixture for 30 min at 37° C. The precipitated protein was removed by centrifugation in a microfuge. An aliquot of the supernatant (40 μl) was applied on silica gel G (0.25 mm thickness) plates and the chromatogram developed with Acetone:Benzene (3:2). The spot corresponding to the mevalonolactone (Rf 0.5) was scraped off and the radioactivity estimated by liquid scintillation counting. Mevalonic acid formed was calcualted from the recovery of internal standard. Microsomal protein was estimated by the method of Lowry [J. Biol. Chem. (1951) 193:265-275 ] after precipitation according to Bensadoun and Weinstein [Anal. Biochem. (1976) 70:241-250]. The specific activity of HMGCoA reductase is expressed as p moles of mevalonic acid formed per minute per mg of microsomal protein.

[3] = based on existing biological data; cited from earlier work
[4] = 100 nM in assay (in 10 μl DMSO)

Compound | concentration in the blood of LDL cholesterol [1] | HMGCoA Reductase Activity ([2]; 1 nM in assay (in 10 μl DMSO)) | HMGCoA Reductase Activity [2, 4] | HMGCoA Reductase Activity ([2]; 1 μM in assay (in 10 μl DMSO)) | HMGCoA Reductase Activity ([2]; 10 μM in assay (in 10 μl DMSO)) | activity in lowering LDL cholesterol levels as compared to Compactin [3]
CC[C@H](C)C(=O)O[C@H]1CCC=C2C=C[C@H](C)[C@H](CC[C@@H]3C[C@@H](O)CC(=O)O3)[C@H]21 [Compactin, (+)-Compactin] | reduced | – | – | – | – | –
CC[C@H]1C=C2C=C[C@H](C)[C@H](CC[C@@H]3C[C@@H](O)CC(=O)O3)[C@H]2[C@@H](OC(=O)[C@@H](C)CC)C1 [Ethyl Compactin, (+)-3-Ethylcompactin] | – | 730 pmol Mevalonate formed/min/mg | 361 pmol Mevalonate formed/min/mg | 182 pmol Mevalonate formed/min/mg | 20 pmol Mevalonate formed/min/mg | –
CC[C@H](C)C(=O)O[C@H]1C[C@@H](C)C=C2C=C[C@H](C)[C@H](CC[C@@H]3C[C@@H](O)CC(=O)O3)[C@H]21 [Mevinolin, (+)-Mevinolin] | reduced | 609 pmol Mevalonate formed/min/mg | 303 pmol Mevalonate formed/min/mg | 113 pmol Mevalonate formed/min/mg | 52 pmol Mevalonate formed/min/mg | several times more active
